Measured values from patent US20250017940A1, “SELECTIVE PEPTIDOMIMETIC MODULATORS OF CAV2.2 (N-TYPE) VOLTAGE-GATED CALCIUM CHANNELS AND USES THEREOF” (New York University, priority 2023, published 2025).

Experiments:
Na+ channels = experiment: Whole-cell patch-clamp, total Na+ currents in DRG neurons; assay type: cell-based, rat
Method: (§1) Recordings were obtained from acutely dissociated DRG neurons as described earlier (Bellampalli et al., 2019). Patch-clamp recordings were performed at room temperature (22-24° C.). Currents were recorded using an EPC 10 Amplifier-HEKA (HEKA Elektronik, Ludwigshafen, Germany) linked to a computer with Patchmaster software. DRG neurons were incubated overnight (˜16-24 hours) with 20 μM of CBD3063.
For Na^+ current (INa^+) recordings, the external solution contained (in mM): 130 NaCl, 3 KCl, 30 tetraethylammonium chloride, 1 CaCl2, 0.5 CdCl2, 1 MgCl2, 10 D-glucose, and 10 HEPES (pH 7.3 adjusted with NaOH, and mOsm/L=324). Patch pipettes were filled with an internal solution containing (in mM): 140 CsF, 1.1Cs-EGTA, 10 NaCl, and 15 HEPES (pH 7.3 adjusted with CsOH, and mOsm/L=311). Peak Na^+ current was acquired by applying 150-millisecond voltage steps from −70 to +60 mV in 5-mV increments from a holding potential of −60 mV to obtain the current-voltage (I-V) relation.
(§2) Normalization of currents to each cell's capacitance (pF) was performed to allow for collection of current density data. For I-V curves, functions were fitted to data using a non-linear least squares analysis. I-V curves were fitted using double Boltzmann functions:
(§3) Activation curves were obtained from the I-V curves by dividing the peak current at each depolarizing step by the driving force according to the equation: G=I/(Vmem-Erev), where I is the peak current, Vmem is the membrane potential and Erev is the reversal potential. The conductance (G) was normalized against the maximum conductance (Gmax). For total and the different subtypes of Ca^2+ currents, steady-state inactivation (SSI) curves were obtained by applying an H-infinity protocol that consisted of 1.5-seconds conditioning pre-pulses from −100 to +30 mV in 10-mV increments followed by a 20-millisecond test pulse to +10 mV. For Na^+ currents, SSI curves were obtained by applying an H-infinity protocol that consisted of 1-second conditioning pre-pulses from −120 to +10 mV in 10-mV increments followed by a 200-millisecond test pulse to +10 mV. Inactivation curves were obtained by dividing the peak current recorded at the test pulse by the maximum current (Imax). Activation and SSI curves were fitted with the Boltzmann equation.

Cav2.2 = target: T1, Cav2.2 (Rattus norvegicus, UniProt Q02294); experiment: Immunocytochemistry / confocal microscopy of Cav2.2 membrane expression in DRG neurons; assay type: cell-based; conditions: 20 μM overnight (DMSO: 3.59±0.42)
T1 construct: Recordings were obtained from acutely dissociated DRG neurons; endogenous in cells; host or cells: primary rat DRG neurons
Method: Lumbar DRGs were dissected from 100 g female Sprague-Dawley rats using procedures as described previously (Gomez et al., 2022). DRGs were excised and placed in sterile DMEM (Cat #11965; Thermo Fisher Scientific, Waltham, MA). The ganglia were dissociated enzymatically with collagenase type I (5 mg/mL, Cat #LS004194; Worthington) and neutral protease (3.125 mg/mL, Cat #LS02104; Worthington, Lakewood, NJ) for 50 minutes at 37° C. under gentle agitation. The dissociated cells were then centrifuged (800 rpm for 5 min) and resuspended in DMEM containing 1% penicillin/streptomycin sulfate (Cat #15140, Life Technologies, Carlsbad, CA), 10% fetal bovine serum [HyClone]), and 30 ng/mL nerve growth factor (Cat #N2513, Millipore Sigma, St. Louis, MO). The cells were seeded on poly-D-lysine (Cat #P6407, Millipore Sigma, St. Louis, MO) and laminin (Cat #sc-29012, Santa Cruz Biotechnology, Dallas, TX) -coated 12- or 15-mm glass coverslips and incubated at 37° C. All cultures were used within 48 hours.
Immunocytochemistry was performed on DRG neurons incubated with vehicle (0.1% DMSO) or CBD3063 (20 μM) overnight. […] For all quantitative comparisons among cells under differing experimental conditions, camera gain and other relevant settings were kept constant. The freeware image analysis program Image J (http://rsb.info.nih.gov/ij/) was used for quantifying cellular fluorescence. […]

[1] = target: T2, Cav2.3 (R-type) calcium channels (Rattus norvegicus, UniProt Q07652); experiment: Whole-cell patch-clamp, isolated R-type Ca2+ currents in DRG neurons; assay type: cell-based
T2 construct: Recordings were obtained from acutely dissociated DRG neurons; endogenous in cells; host or cells: acutely dissociated rat DRG neurons
T2 sequence (Q07652 whole entry): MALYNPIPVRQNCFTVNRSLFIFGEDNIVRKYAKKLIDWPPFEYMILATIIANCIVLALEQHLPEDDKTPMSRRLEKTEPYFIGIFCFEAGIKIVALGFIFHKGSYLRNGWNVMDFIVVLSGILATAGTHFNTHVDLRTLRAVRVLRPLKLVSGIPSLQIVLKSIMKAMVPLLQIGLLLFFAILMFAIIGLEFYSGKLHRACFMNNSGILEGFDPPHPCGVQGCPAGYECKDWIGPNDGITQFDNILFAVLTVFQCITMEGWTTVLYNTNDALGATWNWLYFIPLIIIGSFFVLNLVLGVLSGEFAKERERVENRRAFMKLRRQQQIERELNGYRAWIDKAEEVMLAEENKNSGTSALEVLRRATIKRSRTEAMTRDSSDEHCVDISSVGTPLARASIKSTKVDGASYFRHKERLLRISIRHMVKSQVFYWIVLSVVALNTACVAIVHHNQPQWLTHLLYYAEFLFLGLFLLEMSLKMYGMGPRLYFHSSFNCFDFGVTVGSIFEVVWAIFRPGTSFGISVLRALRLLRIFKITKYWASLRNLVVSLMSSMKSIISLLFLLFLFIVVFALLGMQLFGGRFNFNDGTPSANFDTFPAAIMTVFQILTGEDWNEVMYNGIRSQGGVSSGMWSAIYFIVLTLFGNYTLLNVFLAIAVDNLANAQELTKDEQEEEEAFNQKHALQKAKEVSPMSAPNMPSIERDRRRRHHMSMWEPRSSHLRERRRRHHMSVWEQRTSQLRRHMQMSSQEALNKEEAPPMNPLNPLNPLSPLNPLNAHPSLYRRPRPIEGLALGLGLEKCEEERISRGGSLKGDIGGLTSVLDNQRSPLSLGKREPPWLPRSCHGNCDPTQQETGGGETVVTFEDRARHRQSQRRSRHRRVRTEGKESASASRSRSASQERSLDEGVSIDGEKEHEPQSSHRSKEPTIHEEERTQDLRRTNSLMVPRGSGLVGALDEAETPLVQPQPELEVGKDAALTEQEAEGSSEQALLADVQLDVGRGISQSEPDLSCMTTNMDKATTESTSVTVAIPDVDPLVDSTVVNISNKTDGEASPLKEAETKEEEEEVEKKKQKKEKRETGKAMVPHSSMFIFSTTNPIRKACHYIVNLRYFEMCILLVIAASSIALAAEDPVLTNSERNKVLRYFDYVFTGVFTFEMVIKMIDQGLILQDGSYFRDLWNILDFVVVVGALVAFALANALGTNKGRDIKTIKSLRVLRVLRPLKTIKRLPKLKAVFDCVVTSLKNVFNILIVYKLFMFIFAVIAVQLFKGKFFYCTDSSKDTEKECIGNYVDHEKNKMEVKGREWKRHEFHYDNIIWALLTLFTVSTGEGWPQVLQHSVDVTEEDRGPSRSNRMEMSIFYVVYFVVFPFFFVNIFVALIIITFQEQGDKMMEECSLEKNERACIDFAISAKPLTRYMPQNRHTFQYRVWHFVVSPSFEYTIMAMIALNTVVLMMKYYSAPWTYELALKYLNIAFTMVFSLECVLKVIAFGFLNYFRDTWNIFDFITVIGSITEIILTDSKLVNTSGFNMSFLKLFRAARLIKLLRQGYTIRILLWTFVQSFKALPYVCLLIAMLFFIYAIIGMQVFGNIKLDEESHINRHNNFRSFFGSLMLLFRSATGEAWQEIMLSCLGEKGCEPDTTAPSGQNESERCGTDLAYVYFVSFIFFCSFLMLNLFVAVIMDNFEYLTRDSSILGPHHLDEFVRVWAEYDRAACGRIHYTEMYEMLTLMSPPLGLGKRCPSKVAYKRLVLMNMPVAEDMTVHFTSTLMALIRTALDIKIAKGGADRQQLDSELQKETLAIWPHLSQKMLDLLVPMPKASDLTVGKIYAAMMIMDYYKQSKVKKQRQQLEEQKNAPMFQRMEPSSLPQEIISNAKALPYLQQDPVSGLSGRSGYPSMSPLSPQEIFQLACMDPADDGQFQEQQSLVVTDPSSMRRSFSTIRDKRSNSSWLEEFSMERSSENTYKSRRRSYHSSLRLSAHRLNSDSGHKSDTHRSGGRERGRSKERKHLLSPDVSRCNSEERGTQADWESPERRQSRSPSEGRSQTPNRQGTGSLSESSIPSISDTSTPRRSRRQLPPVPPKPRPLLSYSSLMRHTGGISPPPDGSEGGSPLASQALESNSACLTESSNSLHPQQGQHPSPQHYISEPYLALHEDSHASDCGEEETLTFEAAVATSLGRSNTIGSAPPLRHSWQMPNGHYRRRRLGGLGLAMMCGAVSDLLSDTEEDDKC
T2 sequence (P54290 25-1091 partner): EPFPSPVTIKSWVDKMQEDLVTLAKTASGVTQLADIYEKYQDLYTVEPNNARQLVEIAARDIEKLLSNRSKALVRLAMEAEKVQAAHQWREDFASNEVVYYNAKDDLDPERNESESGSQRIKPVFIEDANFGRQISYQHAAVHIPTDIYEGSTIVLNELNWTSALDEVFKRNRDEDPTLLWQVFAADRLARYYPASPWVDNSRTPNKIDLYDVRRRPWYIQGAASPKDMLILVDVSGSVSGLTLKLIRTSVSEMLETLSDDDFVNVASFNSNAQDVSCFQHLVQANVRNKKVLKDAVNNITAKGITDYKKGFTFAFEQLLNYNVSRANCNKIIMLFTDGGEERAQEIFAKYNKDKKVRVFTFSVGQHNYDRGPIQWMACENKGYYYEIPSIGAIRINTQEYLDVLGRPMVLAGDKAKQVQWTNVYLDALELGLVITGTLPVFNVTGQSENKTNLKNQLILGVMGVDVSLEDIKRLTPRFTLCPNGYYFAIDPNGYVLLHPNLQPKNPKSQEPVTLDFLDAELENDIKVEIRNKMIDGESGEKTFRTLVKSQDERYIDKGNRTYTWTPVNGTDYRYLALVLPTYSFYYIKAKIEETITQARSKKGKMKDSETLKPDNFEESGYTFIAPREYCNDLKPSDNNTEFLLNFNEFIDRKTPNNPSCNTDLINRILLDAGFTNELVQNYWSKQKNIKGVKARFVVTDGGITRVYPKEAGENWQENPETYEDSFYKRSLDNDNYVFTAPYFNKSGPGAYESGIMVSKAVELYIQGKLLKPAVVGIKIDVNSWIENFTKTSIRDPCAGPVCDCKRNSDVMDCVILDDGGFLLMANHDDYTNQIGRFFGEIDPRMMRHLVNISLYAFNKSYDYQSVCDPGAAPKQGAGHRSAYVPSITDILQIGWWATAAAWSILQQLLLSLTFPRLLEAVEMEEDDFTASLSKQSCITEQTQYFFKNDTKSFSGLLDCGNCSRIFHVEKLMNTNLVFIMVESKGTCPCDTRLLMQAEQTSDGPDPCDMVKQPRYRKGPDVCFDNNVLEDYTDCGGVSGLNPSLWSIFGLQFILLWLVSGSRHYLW
T2 sequence (P54287 whole entry partner): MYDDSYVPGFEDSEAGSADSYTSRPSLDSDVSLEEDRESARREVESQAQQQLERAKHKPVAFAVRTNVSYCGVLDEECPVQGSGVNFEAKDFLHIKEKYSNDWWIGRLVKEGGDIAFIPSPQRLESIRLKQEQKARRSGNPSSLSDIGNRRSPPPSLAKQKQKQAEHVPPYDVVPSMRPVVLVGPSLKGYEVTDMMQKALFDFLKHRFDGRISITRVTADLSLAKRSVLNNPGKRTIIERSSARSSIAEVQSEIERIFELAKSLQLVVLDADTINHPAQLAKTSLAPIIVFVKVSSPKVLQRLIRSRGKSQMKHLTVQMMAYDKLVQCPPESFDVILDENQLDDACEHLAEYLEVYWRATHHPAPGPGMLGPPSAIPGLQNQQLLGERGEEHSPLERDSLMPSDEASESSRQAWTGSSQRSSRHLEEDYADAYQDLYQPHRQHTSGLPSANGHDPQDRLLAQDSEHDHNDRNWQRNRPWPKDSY
Method: as §1
For total calcium current (ICa^2+) recordings, the external solution consisted of the following (in mM): 110 N-methyl-D-glucamine, 10 BaCl2, 30 TEA-Cl, 10 HEPES, 10 glucose, and 0.001 TTX (pH 7.29 adjusted with TEA-OH, and mOsm/L=310). Patch pipettes were filled with an internal solution containing (in mM): 150 CsCl2, 10 HEPES, 5 Mg-ATP, and 5 BAPTA, (pH 7.2 adjusted with CsOH, and mOsm/L-305). Peak Ca^2+ current was acquired by applying 200-millisecond voltage steps from −70 to +60 mV in 10-mV increments from a holding potential of −90 mV to obtain the current-voltage (I-V) relation. To measure the different subtypes of Ca^2+ channels, DRGs were treated with a Cav inhibitor cocktail omitting the inhibitor specific to the subtype being tested (e.g., to measure Cav2.2 currents, ω-conotoxin GVIA is omitted): Nifedipine (10 μM, L-type), ω-Conotoxin-GVIA (500 nM, […]) (Feng, et al., 2001), SNX482 (200 nM, R-type) (Newcomb et al., 1998), ω-agatoxin (200 nM, P/Q-type) (Mintz et al., 1992), TTA-P2 (1 μM, T-type) (Choe et al., 2011).
as §2
where x is the pre-pulse potential, V1/2 is the mid-point potential, and k is the corresponding slope factor for single Boltzmann functions. Double Boltzmann fits were used to describe the shape of the curve, not to imply the existence of separate channel populations. Numbers 1 and 2 simply indicate first and second mid-points; a along with g are fitting parameters.
as §3

[2] = 20 μM overnight, mean ± SEM (n cells)

For CC(=O)N[C@@H]1CCCN(C(=O)NCCCNc2ccccn2)C1 [CBD3063, (3R)-3-acetamido-N-[3-(pyridin-2-ylamino)propyl]piperidine-1-carboxamide], the “peak Na+ current density” value (Na+ channels; 20 μM overnight (DMSO: −455.7±78.70)) was −455.0±60.79 pA/pF, the “Na+ currents, activation V1/2” value (Na+ channels; [2]) was −21.738 ± 0.852 (12) mV and the “Na+ currents, activation k (slope factor)” value (Na+ channels; [2]) was 4.749 ± 0.744 (12). The “Na+ currents, inactivation V1/2” value (Na+ channels; [2]) was −32.552 ± 2.084 (12) mV, the “Na+ currents, inactivation k (slope factor)” value (Na+ channels; [2]) was −12.003 ± 1.936 (12) and the Cav2.2 membrane/cytosol ratio (Cav2.2) was 1.64±0.10. The “effect on Ca2+ influx through Cav2.3 (R-type) channels (current density-voltage curve, peak current density)” value ([1]; 20 μM overnight vs 0.1% DMSO) was “does not alter”, the “R-type Ca2+ currents, activation V1/2” value [1, 2] was −4.098 ± 0.693 (11) mV and the “R-type Ca2+ currents, activation k (slope factor)” value [1, 2] was 7.244 ± 0.579 (11). For the same molecule, the “R-type Ca2+ currents, inactivation V1/2” value [1, 2] was −16.840 ± 2.186 (11) mV and the “R-type Ca2+ currents, inactivation k (slope factor)” value [1, 2] was −11.870 ± 1.850 (11).
